This is an account of results in patent publication US4927937A, “Pharmacologically active ε-valerolactams” (Chinese Academy of Medical Science, priority 1986, dated 1990).

The conditions of assay [1]: animal tests, literature report; cited from earlier work.
For assay [2], the system named is CCl4 intoxicated mice (SGPT). Put plainly: Hepatoprotective action: SGPT of CCl4 intoxicated mice. Format: in vivo, mouse (male Kunming strain). Particulars: 250 mg/kg × 2 orally at 8 h interval, 0.1% CCl4 10 ml/kg injected 24 h after second dose, 9 mice per group; P <0.01; control 1678 + 261. The protocol: Male Kunming strain mice weighing 18-22 grams were used throughout the experiments. The compounds to be tested were suspended in 5% Tween 80 and given orally by gavage. The vehicle of 5% Tween 80 solution was administered to control mice via the same route. In in vitro experiments, the compounds were dissolved in dimethylformamide and added directly into the incubation mixture.
Mice were divided into several groups. The control group was administered the vehicle. The other groups were given two doses (250 mg/kg) of the compound at an interval of 8 h, respectively. 10 ml/kg of 0.1% CCl4 in vegetable oil was injected in 24 h after the second administration of the compound. The mice were fasted for 16 h and sacrificed by decapitation. SGPT and liver lipids were determined. A piece of liver was processed into sections for pathological observation.

Assay [3] concerns male rats, retrograde amnesia under hypoxia. The experiment in a line: Retrograde amnesia (rat) under hypoxic conditions. Format: in vivo. Particulars: 100 mg/kg p.o., hypoxia 3.8% oxygen, 15 animals per group. The protocol: The apparatus (39 cm long, 21 cm high, and 21 cm wide) consists of two compartments, one made of translucent plastic (29 cm long) and the other one painted black (10 cm long) It has a bottom of spaced metal grids which are connected to a stimulating device delivered 1.6 mA for 20 s.
Both compartments are connected via a door which can be closed.
Male rats (100-120 g body weight) will be placed individually in the large compartment and allowed to explore both compartments for 3 min.
Thereafter the animals are placed in the small (dark) compartment, the connecting door is closed and the foot shock is delivered. After that the animals are put in an air-tight cage which is prefused by a gas mixture containing 3.8% oxygen and 96.2% nitrogen.
24 hours later the rats are placed again in the bright compartment. The observation time is 3 min.
One experiment is performed in three groups of 15 animals each:
Group A: control group, not exposed to hypoxia
Group B: control group, receiving hypoxia after first training
Group C: treated animals, receiving hypoxia after first training.
Evaluation: the times the animals need to enter the dark compartment are measured in seconds. […]
The time difference between the control group B and the treated group C is calculated in percent (C-B=X%). X is considered to be measured for the potency of the antiamnestic effect of the substance tested.

On to `C=CC(C)(C)c1cc2cc3c(cc2oc1=O)OC1(C)CCC(C(C)(C)O)OC1C3` (stereo not drawn) [Clausmarin A], for which, in assay [1], the spasmolytic activity entry is listed as “showed spasmolytic activity”.

For the compound `CN1C=C(c2ccccc2)C(c2ccccc2)C(O)C1=O` (stereo not drawn) [Example 1], in assay [2], the “SGPT units % X ± SE” value was 739 + 196 units %. The “X (antiamnestic effect, C-B in percent of A-B)” value in assay [3] turned out to be 11%.
